Laboratory results taken from ChEMBL document CHEMBL3508140 (2016).

Legend:
[1] = Incidence of leukocyturia following reference intravenous doxorubicin at 1 mg.Kg-1 per week in rat; format: toxicity, organism-based, SD; set-up: dose 1 mg.Kg-1, dosed compound id 2.46809e+06, dosed compound name Doxorubicin, dose level High, gender Mixed, regimen Once per week, route intravenous, sampling time 36 Week, study doses 0/0.3/0.6/1 mg.Kg-1; conditions: in vivo
[2] = Mean plasma clearance of doxorubicin following intravenous doxorubicin at 60 mg.m-2 dose in cancer patients; format: ADME, organism-based; conditions: human, read-out: CLp (converted)
[3] = Volume of distribution of adriamycin following intravenous adriamycin at 1.27 mg.Kg-1 dose in dog; format: ADME, organism-based, Canis lupus familiaris; set-up: dose 1.27 mg.Kg-1, dosed compound id 2.46809e+06, dosed compound name Doxorubicin, route intravenous; conditions: Beagle, plasma
[4] = Detection of doxorubicin in plasma following single intravenous doxorubicin at 10 mg.Kg-1 dose in female mouse bearing colon tumor; format: ADME, organism-based, BALB/c; set-up: dose 10 mg.Kg-1, dosed compound id 2.46809e+06, dosed compound name Doxorubicin, gender F, regimen Single, route intravenous, sampling time 48 h; conditions: in vivo
[5] = Terminal half-life of doxorubicin following intravenous doxorubicin at 1.27 mg.Kg-1 dose in dog; format: ADME, organism-based, Canis lupus familiaris, Beagle, Plasma; set-up: dose 1.27 mg.Kg-1, dosed compound id 2.46809e+06, dosed compound name Doxorubicin, route intravenous; conditions: in vivo
[6] = Detection of doxorubicin in heart following single intravenous doxorubicin at 10 mg.Kg-1 dose in female mouse bearing colon tumor; format: ADME, organism-based, BALB/c; set-up: dose 10 mg.Kg-1, dosed compound id 2.46809e+06, dosed compound name Doxorubicin, gender F, regimen Single, route intravenous, sampling time 48 h; conditions: in vivo
[7] = Detection of doxorubicin in tumor following single intravenous doxorubicin at 10 mg.Kg-1 dose in female mouse bearing colon tumor; format: ADME, organism-based, BALB/c, Neoplasm; set-up: dose 10 mg.Kg-1, dosed compound id 2.46809e+06, dosed compound name Doxorubicin, gender F, regimen Single, route intravenous, sampling time 48 h; conditions: in vivo
[8] = Mean AUC of doxorubicin following intravenous doxorubicin at 60 mg.m-2 dose in cancer patients; format: ADME, organism-based; conditions: human, plasma
[9] = Renal clearance of doxorubicin following doxorubicin at 60 mg.m-2 dose in cancer patients; format: ADME, organism-based, Kidney; conditions: human, in vivo, iv, read-out: Renal clearance (converted)
[10] = Elimination of doxorubicin following doxorubicin at 60 mg.m-2 dose in cancer patients; format: ADME, organism-based, Plasma; conditions: human, in vivo, iv
[11] = AUC values (0-48 h) of doxorubicin in plasma following single intravenous doxorubicin at 10 mg.Kg-1 dose in female mouse bearing colon tumor; format: ADME, organism-based, BALB/c; set-up: time < 48 hr, dose 10 mg.Kg-1, dosed compound id 2.46809e+06, dosed compound name Doxorubicin, gender F, regimen Single, route intravenous, sampling time 48 h; conditions: in vivo
[12] = Volume of distribution at steady state following doxorubicin at 60 mg.m-2 dose in patients with cancer; format: ADME, organism-based; set-up: dose 60 mg.m-2, dosed compound id 2.46809e+06, dosed compound name Doxorubicin; conditions: human, plasma, read-out: Vss
[13] = Increase in serum phospholipid level following reference intravenous doxorubicin at 1 mg.Kg-1 per week in rat; format: toxicity, organism-based, SD; set-up: dose 1 mg.Kg-1, dosed compound id 2.46809e+06, dosed compound name Doxorubicin, dose level High, gender Mixed, regimen Once per week, route intravenous, sampling time 8-22 Week, study doses 0/0.3/0.6/1 mg.Kg-1; conditions: in vivo
in vivo [14] = conditions: female, BALB/c, mouse, tumor, iv, 10 mg/kg
in vivo [15] = conditions: female, BALB/c, mouse, heart, iv, 10 mg/kg
[16] = (§1) Urinary elimination of adriamycin following intravenous bolus adriamycin at 10 mg.Kg-1 dose in rat; format: ADME, organism-based; set-up: dose 10 mg.Kg-1, dosed compound id 2.46809e+06, dosed compound name Doxorubicin, route intravenous, sampling time 0-6 h; conditions: SD, urine, read-out: Compound recovery
[17] = AUC values (0-48 h) of doxorubicin in tumor following single intravenous doxorubicin at 10 mg.Kg-1 dose in female mouse bearing colon tumor; format: ADME, organism-based, BALB/c, Neoplasm; set-up: time < 48 hr, dose 10 mg.Kg-1, dosed compound id 2.46809e+06, dosed compound name Doxorubicin, gender F, regimen Single, route intravenous, sampling time 48 h; conditions: in vivo
[18] = Mean terminal half-life of doxorubicin following intravenous doxorubicin at 60 mg.m-2 dose in cancer patients; conditions: human, plasma
[19] = Mortality occurred following reference intravenous doxorubicin at 1 mg.Kg-1 per week in rat; format: toxicity, organism-based, SD; set-up: dose 1 mg.Kg-1, dosed compound id 2.46809e+06, dosed compound name Doxorubicin, dose level High, gender Mixed, regimen Once per week, route intravenous, sampling time 17 Week, study doses 0/0.3/0.6/1 mg.Kg-1; conditions: in vivo
[20] = Percentage of doxorubicin excreted unchanged in urine following doxorubicin at 60 mg.m-2 dose in cancer patients; format: ADME, organism-based; set-up: dose 60 mg.m-2, dosed compound id 2.46809e+06, dosed compound name Doxorubicin; conditions: human, at 60 mg/m2, read-out: Compound recovery
[21] = AUC values (0-48 h) of doxorubicin in heart following single intravenous doxorubicin at 10 mg.Kg-1 dose in female mouse bearing colon tumor; format: ADME, organism-based, BALB/c; set-up: time < 48 hr, dose 10 mg.Kg-1, dosed compound id 2.46809e+06, dosed compound name Doxorubicin, gender F, regimen Single, route intravenous, sampling time 48 h; conditions: in vivo
Albumin = Albumin (Homo sapiens, UniProt P02768); assay: Binding of doxorubicin to albumin; format: cell-free; conditions: read-out: Plasma protein binding (converted)
Chain of Albumin (P02768 whole entry): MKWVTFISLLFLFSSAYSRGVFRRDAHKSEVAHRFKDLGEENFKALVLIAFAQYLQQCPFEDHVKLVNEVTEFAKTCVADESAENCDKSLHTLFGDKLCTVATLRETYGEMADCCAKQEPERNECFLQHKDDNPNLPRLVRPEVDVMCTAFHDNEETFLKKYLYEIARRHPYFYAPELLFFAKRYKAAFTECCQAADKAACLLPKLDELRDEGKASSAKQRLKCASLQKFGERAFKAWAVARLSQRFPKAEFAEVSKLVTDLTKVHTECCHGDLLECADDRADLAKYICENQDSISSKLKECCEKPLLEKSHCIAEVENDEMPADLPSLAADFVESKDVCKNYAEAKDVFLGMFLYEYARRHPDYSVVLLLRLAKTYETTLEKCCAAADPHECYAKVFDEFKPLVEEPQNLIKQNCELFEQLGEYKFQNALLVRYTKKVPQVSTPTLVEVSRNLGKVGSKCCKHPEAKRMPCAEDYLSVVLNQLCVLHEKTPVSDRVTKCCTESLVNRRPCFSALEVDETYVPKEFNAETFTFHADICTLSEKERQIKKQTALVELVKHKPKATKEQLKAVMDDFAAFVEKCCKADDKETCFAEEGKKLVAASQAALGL

[22] = as §1; format: ADME, organism-based; set-up: dose 10 mg.Kg-1, dosed compound id 2.46809e+06, dosed compound name Doxorubicin, route intravenous, sampling time 0-60 h; conditions: SD, urine, read-out: Compound recovery
[23] = Increase in serum triglycerides level following reference intravenous doxorubicin at 1 mg.Kg-1 per week in rat; format: toxicity, organism-based, SD; set-up: dose 1 mg.Kg-1, dosed compound id 2.46809e+06, dosed compound name Doxorubicin, dose level High, gender Mixed, regimen Once per week, route intravenous, sampling time 8-22 Week, study doses 0/0.3/0.6/1 mg.Kg-1; conditions: in vivo
[24] = Increase in serum total cholesterol level following reference intravenous doxorubicin at 1 mg.Kg-1 per week in rat; format: toxicity, organism-based, SD; set-up: dose 1 mg.Kg-1, dosed compound id 2.46809e+06, dosed compound name Doxorubicin, dose level High, gender Mixed, regimen Once per week, route intravenous, sampling time 8-22 Week, study doses 0/0.3/0.6/1 mg.Kg-1; conditions: in vivo
Homo sapiens = organism: Homo sapiens; assay: Binding of doxorubicin to plasma protein of human; format: cell-free
[25] = Plasma clearance of adriamycin following intravenous adriamycin at 1.27 mg.Kg-1 dose in dog; format: ADME, organism-based, Canis lupus familiaris; set-up: dose 1.27 mg.Kg-1, dosed compound id 2.46809e+06, dosed compound name Doxorubicin, route intravenous; conditions: Beagle, read-out: Clp
[26] = as §1; format: ADME, organism-based; set-up: dose 10 mg.Kg-1, dosed compound id 2.46809e+06, dosed compound name Doxorubicin, route intravenous, sampling time 0-24 h; conditions: SD, urine, read-out: Compound recovery
[27] = Incidence of persistent proteinuria following reference intravenous doxorubicin at 1 mg.Kg-1 per week in rat; format: toxicity, organism-based, SD; set-up: dose 1 mg.Kg-1, dosed compound id 2.46809e+06, dosed compound name Doxorubicin, dose level High, gender Mixed, regimen Once per week, route intravenous, sampling time 36 Week, study doses 0/0.3/0.6/1 mg.Kg-1; conditions: in vivo
[28] = Decrease in leukocytes observed following reference intravenous doxorubicin at 1 mg.Kg-1 per week in rat; format: toxicity, organism-based, SD, Blood; set-up: dose 1 mg.Kg-1, dosed compound id 2.46809e+06, dosed compound name Doxorubicin, dose level High, gender Mixed, regimen Once per week, route intravenous, sampling time 36 Week, study doses 0/0.3/0.6/1 mg.Kg-1; conditions: in vivo
[29] = Decrease in albumin due to persistent proteinuria following reference intravenous doxorubicin at 1 mg.Kg-1 per week in rat; format: toxicity, organism-based, SD, Serum; set-up: dose 1 mg.Kg-1, dosed compound id 2.46809e+06, dosed compound name Doxorubicin, dose level High, gender Mixed, regimen Once per week, route intravenous, sampling time 36 Week, study doses 0/0.3/0.6/1 mg.Kg-1; conditions: in vivo
in vivo [30] = conditions: female, BALB/c, mouse, plasma, iv, 10 mg/kg
in vivo [31] = conditions: Beagle, dog, plasma, iv, 1.27 mg/kg

In the case of `COc1cccc2c1C(=O)c1c(O)c3c(c(O)c1C2=O)C[C@@](O)(C(=O)CO)C[C@@H]3O[C@H]1C[C@H](N)[C@H](O)[C@H](C)O1` [DOXORUBICIN], the Incidence [1] is reported as “OUTCOME = Observed”, the clearance [2] is reported as 950 mL/min and the Vd [3] is reported as 19.1 L/kg. The Compound recovery [4] was “OUTCOME = Observed”, the t1/2 [5] was “VALUE = Shorter than doxorubicin” and the Compound recovery [6] was “OUTCOME = Observed”. The Compound recovery [7] was “OUTCOME = Observed”, the AUC [8] was 1970 ng·h/mL and the CL renal [9] was 76.7 mL/min. For the same molecule, the Elimination [10] was “OUTCOME = Observed”, the AUC [11] was 204.9 nmol·min/mL and the Vd [12] was 33 L/kg. The PHOSLPD_CHANGE [13] was “OUTCOME = Increased”, the half-life (in vivo [14]) was 1930 min and the half-life (in vivo [15]) was 792 min. The dose excreted [16] was 2.08%, the AUC [17] was 8700 nmol·min/g and the half-life [18] was 2880 min. The Mortality [19] was “OUTCOME = Observed, N_AFFECTED = 9”, the dose excreted at 7 Day [20] was 9% and the AUC [21] was 14100 nmol·min/g. For the same molecule, the fraction unbound (Albumin) was 0.38, the dose excreted [22] was 3.33% and the TRIG_CHANGE [23] was “OUTCOME = Increased”. The CHOL_CHANGE [24] was “OUTCOME = Increased”, the PPB (Homo sapiens) was 71% and the clearance [25] was 607 mL/min. For the same molecule, the dose excreted [26] was 2.77%, the Incidence [27] was “OUTCOME = Observed” and the WBC_CHANGE [28] was 45%. For the same molecule, the ALB_CHANGE [29] was “OUTCOME = Decreased”, the half-life (in vivo [30]) was 2970 min and the half-life (in vivo [31]) was 5.4 min.
